Source: PMC8395886, “Square-Planar vs. Trigonal Bipyramidal Geometry in Pt(II) Complexes Containing Triazole-Based Glucose Ligands as Potential Anticancer Agents” (International Journal of Molecular Sciences, 2021)
Read-outs that look alike come from different tables or passages of the source.

How the values were obtained:
[1] = test system: H9c2 (rat cardiomyoblast cells); assay: MTT cytotoxicity assay on H9c2 cells; assay type: cell-based; settings: 48 h incubation
Description: (§7) A431, H9c2, and MCF7 cells were purchased from American Type Culture Collection (ATCC). HaCaT cells were from Innoprot (Derio, Spain). Cells were cultured in DMEM (Sigma-Aldrich, St. Louis, MO, USA), supplemented with 10% fetal bovine serum (HyClone, Thermo Scientific, Logan, UT, USA) and antibiotics in a 5% CO2 humidified atmosphere at 37 °C. The growth medium of H9c2 cells was implemented with 2 mM L-glutamine and 2 mM sodium pyruvate. Cells were seeded in 96-well plates at a density of 2.5 × 10^3 cells per well. Different drugs were added at increasing concentrations 24 h after seeding for dose-dependent assays. […] After 48 h incubation, cell viability was assessed by MTT assay, as described in a previous study [30]. Control experiments were performed by either growing cells in the absence of the compound or by supplementing the cell cultures with identical volumes of buffer (water:acetone, 1:1 v/v). Each value is the mean of three independent experiments, each with three determinations. Significance was determined by Student’s t-test.

[2] = test system: HaCaT (human keratinocyte cells); assay: MTT cytotoxicity assay on HaCaT cells; assay type: cell-based; settings: 48 h incubation
Description: as §7

[3] = test system: A431 (epidermoid carcinoma cells); assay: MTT cytotoxicity assay on A431 cells; assay type: cell-based, human; settings: for IC50: 48 h incubation; for Selectivity Index H9c2/A431 / Selectivity Index HaCaT/A431: IC50 immortalized cells/IC50 cancer cells
Description: as §7

[4] = test system: MCF-7 (breast cancer cells); assay: MTT cytotoxicity assay on MCF7 cells; assay type: cell-based, human; settings: for IC50: 48 h incubation; for Selectivity Index H9c2/MCF7 / Selectivity Index HaCaT/MCF7: IC50 immortalized cells/IC50 cancer cells
Description: as §7

[5] = test system: MCF-7, A431, H9c2 and HaCaT cells; assay: MTT assay, all the analyzed cell lines (statement in words); assay type: cell-based; settings: 48 h
Description: The biological effect of the Pt-compounds was tested on two human tumor cell lines, MCF-7 (breast cancer cells) and A431 (epidermoid carcinoma cells), and two non-tumorigenic cell lines, H9c2 (rat cardiomyoblast cells), and HaCaT (human keratinocyte cells), using the MTT assay. […] Indeed, due to their inertness towards the substitution of the sugar ligand, their biological activity can be influenced by the nature of the sugar ligand, whose presence in the complex can affect its internalization or mechanism of action once inside the cell. On the other hand, in the case of the five-coordinate complexes, the loss of the sugar tag plausibly determines their substantial leveling of activities. […] The behavior of 4Pt-im was very similar to that of 4Pt-py.
(§1) A431, H9c2, and MCF7 cells were purchased from American Type Culture Collection (ATCC). HaCaT cells were from Innoprot (Derio, Spain). Cells were cultured in DMEM (Sigma-Aldrich, St. Louis, MO, USA), supplemented with 10% fetal bovine serum (HyClone, Thermo Scientific, Logan, UT, USA) and antibiotics in a 5% CO2 humidified atmosphere at 37 °C. The growth medium of H9c2 cells was implemented with 2 mM L-glutamine and 2 mM sodium pyruvate. […] After 48 h incubation, cell viability was assessed by MTT assay, as described in a previous study. […] Significance was determined by Student’s t-test.

[6] = test system: HaCaT (human keratinocyte cells); settings: 48 h incubation; read-out: MTT IC50 48 h, HaCaT; cited from earlier work
[7] = test system: A431 (epidermoid carcinoma cells); settings: 48 h incubation; read-out: MTT IC50 48 h, A431; cited from earlier work
[8] = In-solution stability by 1H-NMR over time; assay type: physicochemical
Description: To compare the solution stability of the complexes, ^1H-NMR and UV–vis spectra over time were recorded for 4Pt type species dissolved in diverse aqueous (phosphate buffer, PB; pH 7.4): organic solvent mixtures, i.e., 1:1 v/v D2O:acetone-d6; 9:1 v/v PB:DMSO-d6; 1:1 v/v PB:DMSO-d6 and DMSO-d6. These solvents were selected to verify the stability in pseudo-physiological conditions in the presence of solvents with different coordinating properties and concentrations.
The appropriate 4Pt complex (5 mg) was dissolved in 0.5 mL of DMSO-d6 or acetone-d6. Calculated volumes of solution were diluted to 600 µL with the appropriate volumes of PB in D2O (25 mM, pH 7.4) and/or DMSO-d6 to provide a 1 mM solution of the complex with the appropriate v/v ratio of solvents. Samples were incubated at 37 °C, and NMR spectra were recorded at different times.

A431 cells [9] = assay: GLUT1-inhibitor-mediated cytotoxicity assay (quercetin, MTT); assay type: cell-based, human
Description: (§2) The cell death mechanism induced by 4Pt-py was analyzed on A431 cells. First, the internalization process of 4Pt-py was evaluated by studying the involvement of GLUT receptors. In particular, 4Pt-py internalization and cytotoxicity were tested using quercetin as a glucose transporter inhibitor [24, 30, 42]. […] The 10 µM concentration used was very similar to the IC50 value, and then, a double value (20 µM) was also used to definitely exclude necrosis at very high concentrations.
as §1
(§3) Figure 8 Analysis of the mechanism of action of 4Pt-py. […] Cell viability was assessed using the MTT assay after 48 h incubation. […] (B) Cells were incubated with increasing amounts of 4Pt-py for 48 h, and the release of LDH was measured. […] The % of LDH release was calculated as described in the Materials and Methods section.

A431 cells [10] = assay: LDH release (necrosis); assay type: cell-based, human; settings: 10 and 20 µM, 48 h
Description: as §2
The occurrence of necrosis was determined by measuring the release of lactate dehydrogenase (LDH) in the culture medium, as described by Sucha et al.. The LDH content of the medium from untreated cells was referred to as a spontaneous release, whereas the LDH total cellular content was determined upon cell lysis. The percentage of LDH release was calculated as:(1) LDH release % = [experimental−spontaneus release/total content−spontaneous release]×100
as §3, with “4Pt-py. (A) Glucose-transporter-dependent cytotoxicity of 4Pt-py on A431 cells.” for “4Pt-py.”

A431 cells [11] = settings: IC50 value (12 µM) and 20 µM, 48 h
Description: (§4) The activation of the apoptotic pathway was analyzed by Western blotting and an analysis of the mitochondrial potential as it is well known that mitochondrial outer membrane permeabilization is essential to initiate mitochondrial apoptosis.
Each value is the mean of three independent experiments, each with three determinations. Significance was determined by Student’s t-test.
(§5) A431 cells were incubated with 12 μM of 4Pt-py for 48 h. (A,B) Analysis by Western blotting of pro-caspase-3 and -9. Β-actin or GAPDH was used as the loading control.

procaspase-3 = settings: A431 cells, 12 μM, 48 h
Description: as §4
(§6) A431 cells were plated at a density of 3 × 10^5 cells cm^−2 in a complete medium for 24 h and then treated for 48 h with 12 µM 4Pt-py. At the end of the incubation, both untreated and treated cells were analyzed, as described previously for Western blot analyses. Upon the determination of total protein concentration in the supernatant by the Bradford assay, samples were analyzed by SDS-PAGE and Western blot using specific antibodies directed towards procaspase-3 or -9 (Cell Signal Technology, Danvers, MA, USA). β-actin (Sigma-Aldrich) or GAPDH (Thermo Fisher, Rockford, IL, USA) was used as the loading control. Each value is the mean of three independent experiments, each with three determinations. Significance was determined by Student’s t-test.
as §5

procaspase-9 = settings: A431 cells, 12 μM, 48 h
Description: as §4, §6, §5

SMILES | IC50 [1] [µM] | IC50 [2] [µM] | IC50 [3] [µM] | IC50 [4] [µM] | Toxic activity (in words) [5] | Selectivity Index H9c2/A431 [3] | Selectivity Index HaCaT/A431 [3] | IC50 [6] [µM] | Selectivity Index H9c2/MCF7 [4] | IC50 [7] [µM] | Structural variations in solution (1H-NMR) ([8]; 1:1 v/v D2O:acetone-d6, over 3 days) | Selectivity Index HaCaT/MCF7 [4] | Lethality of quercetin alone (A431 cells [9]; 5 μM, data not shown) | Time to equilibrium of sugar ligand/DMSO exchange ([8]; 1:1 v/v PB:DMSO-d6, 37 °C) [h] | LDH release (A431 cells [10]) | Mitochondrial potential (Δψm) (A431 cells [11]) | Inhibition of cytotoxicity by glucose transporter inhibitor quercetin (A431 cells [9]; A431 cells, 0.5–200 μM compound ± 5 μM quercetin, 48 h) | Pro-caspase-3 signal (procaspase-3) | Pro-caspase-9 signal (procaspase-9)
Cn1c[n+]([Pt-2]2([CH3])[n+]3cccc4ccc5ccc[n+]2c5c43)cc1-c1cn([C@@H]2O[C@H](CO)[C@@H](O)[C@H](O)[C@H]2O)nn1.O=S(=O)([O-])C(F)(F)F [4Pt-imdep] | > 200 | > 200 | > 200 | > 200 | No toxic activity was observed |  |  |  |  |  |  |  |  |  |  |  |  |  | 
N.N.[Cl][Pt][Cl] [Cisplatin, reference compound] | 8 ± 2.1 |  |  | 18 ± 1.6 |  | 0.2 | 0.17 | 6.6 ± 0.3 | 0.44 | 39 ± 12 |  |  |  |  |  |  |  |  | 
CC(=O)OC[C@H]1O[C@@H](n2cc(-c3c[n+]([Pt-2]4([CH3])[n+]5cccc6ccc7ccc[n+]4c7c65)cn3C)nn2)[C@H](OC(C)=O)[C@@H](OC(C)=O)[C@@H]1OC(C)=O.O=S(=O)([O-])C(F)(F)F [4Pt-im] | 53 ± 11 | 27 ± 7 | 16 ± 8 | 43 ± 7 |  | 3.3 | 1.69 |  | 1.23 |  | No appreciable structural variations | 0.63 |  |  |  |  |  |  | 
O=c1c(O)c(-c2ccc(O)c(O)c2)oc2cc(O)cc(O)c12 [quercetin, reference compound] |  |  |  |  |  |  |  |  |  |  |  |  | non-lethal concentration |  |  |  |  |  | 
CC(=O)OC[C@H]1O[C@@H](n2cc(-c3ccc[n+]([Pt-2]4([CH3])[n+]5cccc6ccc7ccc[n+]4c7c65)c3)nn2)[C@H](OC(C)=O)[C@@H](OC(C)=O)[C@@H]1OC(C)=O.O=S(=O)([O-])C(F)(F)F [4Pt-py] | 22 ± 10 | 66 ± 11 | 12 ± 2 | 35 ± 4 |  | 1.83 | 5.5 |  | 0.63 |  |  | 1.88 |  | 24 | no LDH release was observed | significant decrease | no inhibition of cytotoxicity was observed in the presence of quercetin | small but significant decrease | small but significant decrease
